Measurements taken from ChEMBL document CHEMBL1137093, “Synthesis, receptor binding and functional studies of mesoridazine stereoisomers” (Bioorg Med Chem Lett, 2004).
Several values for one entry are separate records, joined by “and”; a condition that tells them apart may be missing. Identical values can stand only once.

Columns and labels:
[1] = Antagonism was determined as concentration required to inhibit quinpirole-induced mitogenesis in CHOp cells
[2] = biological target: T1, 5-hydroxytryptamine receptor 1A (Homo sapiens, UniProt P08908); assay: Binding affinity towards human 5-hydroxytryptamine 1A receptor was determined by using [3H]8-OH-DPAT as radioligand
T1 sequence (P08908 whole entry): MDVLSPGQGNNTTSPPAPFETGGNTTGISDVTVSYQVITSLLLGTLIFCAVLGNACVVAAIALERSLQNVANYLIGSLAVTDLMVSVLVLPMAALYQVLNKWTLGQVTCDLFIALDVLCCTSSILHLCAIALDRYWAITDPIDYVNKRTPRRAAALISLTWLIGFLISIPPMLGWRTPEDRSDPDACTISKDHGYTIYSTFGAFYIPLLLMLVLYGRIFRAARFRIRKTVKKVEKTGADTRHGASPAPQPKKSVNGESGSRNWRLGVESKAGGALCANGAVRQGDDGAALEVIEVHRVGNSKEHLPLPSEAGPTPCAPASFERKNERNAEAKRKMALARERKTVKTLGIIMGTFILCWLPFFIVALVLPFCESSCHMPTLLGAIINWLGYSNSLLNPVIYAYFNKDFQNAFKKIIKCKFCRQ

[3] = biological target: T2, 5-hydroxytryptamine receptor 2A (Rattus norvegicus, UniProt P14842); assay: Binding affinity towards rat 5-hydroxytryptamine 2A receptor was determined by using [3H]-ketanserin as radioligand
T2 sequence (P14842 whole entry): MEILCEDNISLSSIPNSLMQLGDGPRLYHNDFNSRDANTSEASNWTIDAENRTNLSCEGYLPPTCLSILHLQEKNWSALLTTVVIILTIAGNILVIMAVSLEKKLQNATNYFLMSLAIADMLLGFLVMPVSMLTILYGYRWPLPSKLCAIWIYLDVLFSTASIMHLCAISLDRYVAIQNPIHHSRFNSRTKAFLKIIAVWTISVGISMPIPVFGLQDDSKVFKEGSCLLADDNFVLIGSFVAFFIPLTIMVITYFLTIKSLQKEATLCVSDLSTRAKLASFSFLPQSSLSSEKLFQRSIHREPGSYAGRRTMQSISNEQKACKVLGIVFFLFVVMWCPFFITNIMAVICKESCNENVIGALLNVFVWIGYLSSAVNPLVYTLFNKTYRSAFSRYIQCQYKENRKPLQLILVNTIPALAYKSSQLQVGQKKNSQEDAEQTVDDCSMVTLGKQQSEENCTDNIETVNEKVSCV

D(2) dopamine receptor [4] = biological target: T3, D(2) dopamine receptor (Homo sapiens, UniProt P14416)
T3 sequence (P14416 whole entry): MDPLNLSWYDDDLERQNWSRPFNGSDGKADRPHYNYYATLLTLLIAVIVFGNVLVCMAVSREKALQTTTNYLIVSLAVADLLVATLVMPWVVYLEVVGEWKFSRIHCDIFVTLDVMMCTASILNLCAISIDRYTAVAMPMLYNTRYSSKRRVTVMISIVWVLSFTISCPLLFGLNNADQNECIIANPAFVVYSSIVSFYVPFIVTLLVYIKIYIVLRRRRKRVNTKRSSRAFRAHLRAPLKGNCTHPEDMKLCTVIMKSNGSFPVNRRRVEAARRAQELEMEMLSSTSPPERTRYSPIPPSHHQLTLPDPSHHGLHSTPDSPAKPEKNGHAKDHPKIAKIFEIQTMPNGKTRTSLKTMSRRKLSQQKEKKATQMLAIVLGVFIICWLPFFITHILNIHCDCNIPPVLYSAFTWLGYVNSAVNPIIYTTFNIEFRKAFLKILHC
Description: Concentration required to inhibit [3H]YM-09151-2 binding to human D2 dopamine receptor

D(3) dopamine receptor = D(3) dopamine receptor (Homo sapiens, UniProt P35462)
D(3) dopamine receptor, sequence (P35462 whole entry): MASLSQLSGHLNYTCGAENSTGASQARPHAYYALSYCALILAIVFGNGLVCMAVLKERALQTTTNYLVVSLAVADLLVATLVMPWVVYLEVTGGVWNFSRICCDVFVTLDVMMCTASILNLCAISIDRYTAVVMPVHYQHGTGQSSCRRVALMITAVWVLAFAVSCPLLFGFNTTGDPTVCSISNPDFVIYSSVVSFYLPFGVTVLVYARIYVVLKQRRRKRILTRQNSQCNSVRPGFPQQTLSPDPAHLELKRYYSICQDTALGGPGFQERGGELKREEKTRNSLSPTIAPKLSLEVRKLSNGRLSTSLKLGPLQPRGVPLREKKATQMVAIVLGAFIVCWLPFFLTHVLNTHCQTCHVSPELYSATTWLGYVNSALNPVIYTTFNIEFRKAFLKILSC
Description: Binding affinity towards human D3 dopamine receptor was determined by using [3H]YM-09151-2 as radioligand

[5] = biological target: T2, 5-hydroxytryptamine receptor 2A; assay: Antagonism of 5-hydroxytryptamine 2A receptor was determined using rat aortal strip contraction assay
D(2) dopamine receptor [6] = biological target: T3, D(2) dopamine receptor; remark: listed apart in the source
Description: High binding affinity towards human D2 dopamine receptor was determined by using [3H]YM-09151-2 as radioligand

D(1A) dopamine receptor [7] = biological target: T4, D(1A) dopamine receptor (Homo sapiens, UniProt P21728); assay: Antagonism of D1 dopamine receptor of human was determined in C6D1 low-density cells by using cyclic AMP assay
T4 sequence (P21728 whole entry): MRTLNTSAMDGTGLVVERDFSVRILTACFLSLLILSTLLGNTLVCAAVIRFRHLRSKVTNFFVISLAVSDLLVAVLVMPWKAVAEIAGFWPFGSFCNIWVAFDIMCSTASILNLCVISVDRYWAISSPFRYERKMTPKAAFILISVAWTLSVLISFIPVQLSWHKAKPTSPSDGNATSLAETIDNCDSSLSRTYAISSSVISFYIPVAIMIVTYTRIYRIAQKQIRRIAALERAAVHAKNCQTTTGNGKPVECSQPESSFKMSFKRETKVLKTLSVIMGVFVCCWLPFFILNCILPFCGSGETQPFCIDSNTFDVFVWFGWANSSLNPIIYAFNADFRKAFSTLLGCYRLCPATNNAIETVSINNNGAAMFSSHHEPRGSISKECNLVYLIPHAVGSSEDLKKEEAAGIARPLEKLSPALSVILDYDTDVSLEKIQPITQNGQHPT

D(1A) dopamine receptor [8] = biological target: T4, D(1A) dopamine receptor
Description: Binding affinity towards human D1 dopamine receptor was determined by using [3H]-SCH- 23390 as radioligand

[9] = biological target: T5, 5-hydroxytryptamine receptor 2C (Rattus norvegicus, UniProt P08909); assay: Binding affinity towards rat 5-hydroxytryptamine 2C receptor was determined by using [3H]mesulergine as radioligand
T5 sequence (P08909 whole entry): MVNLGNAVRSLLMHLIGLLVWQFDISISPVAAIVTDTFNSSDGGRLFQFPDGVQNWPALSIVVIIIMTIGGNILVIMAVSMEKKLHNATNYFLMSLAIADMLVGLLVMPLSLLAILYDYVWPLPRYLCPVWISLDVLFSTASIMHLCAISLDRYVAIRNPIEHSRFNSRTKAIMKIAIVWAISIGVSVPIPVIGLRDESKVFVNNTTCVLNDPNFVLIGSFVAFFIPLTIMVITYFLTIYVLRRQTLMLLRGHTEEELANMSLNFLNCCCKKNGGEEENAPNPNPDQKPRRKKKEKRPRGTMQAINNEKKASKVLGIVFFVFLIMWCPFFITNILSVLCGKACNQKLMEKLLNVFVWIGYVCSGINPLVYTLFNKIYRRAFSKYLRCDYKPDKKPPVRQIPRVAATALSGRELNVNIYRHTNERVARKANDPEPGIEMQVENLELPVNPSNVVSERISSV

[10] = biological target: 5-hydroxytryptamine receptor 2A (Rattus norvegicus) (UniProt P14842)
5-hydroxytryptamine receptor 2A (Rattus norvegicus), sequence (P14842 whole entry): as the sequence (P14842 whole entry) above

D(2) dopamine receptor [11] = biological target: T3, D(2) dopamine receptor; remark: listed apart in the source
D(2) dopamine receptor [12] = biological target: T3, D(2) dopamine receptor; remark: listed apart in the source
Description: Binding affinity towards human D2 dopamine receptor was determined by using [3H]YM-09151-2 as radioligand

| SMILES | IC50 [1] | Ki [2] [nM] | Ki [3] [nM] | IC50 (D(2) dopamine receptor [4]) [nM] | Ki (D(3) dopamine receptor) [nM] | Kb [5] [nM] | Ki (D(2) dopamine receptor [6]) [nM] | IC50 (D(1A) dopamine receptor [7]) [nM] | Ki (D(1A) dopamine receptor [8]) [nM] | Ki [9] [nM] | Ke [10] [nM] | Ki (D(2) dopamine receptor [11]) [nM] | Ki (D(2) dopamine receptor [12]) [nM] |
| --- | --- | --- | --- | --- | --- | --- | --- | --- | --- | --- | --- | --- | --- |
| CN1CCCC[C@@H]1CCN1c2ccccc2Sc2ccc([S@@](C)=O)cc21 | 4 nM and 16 nM | 64 | 19 | 63 | 26 | 2.51 | 1.2 | 460 | 317 | 112 | 2.5 | 1840 |  |
| CN1CCCC[C@H]1CCN1c2ccccc2Sc2ccc([S@](C)=O)cc21 | 232 nM and 408 nM | 395 | 414 |  | 197 |  |  | 1250 | 620 | 410 |  |  | 426 |
| CN1CCCCC1CCN1c2ccccc2Sc2ccc([S+](C)[O-])cc21 (single isomer, unassigned; 2) [listing 1 of 2 here] |  |  |  |  |  |  |  |  |  |  | 7 |  |  |
| CN1CCCCC1CCN1c2ccccc2Sc2ccc([S+](C)[O-])cc21 (single isomer, unassigned; 2) [listing 2 of 2 here] | 10 nM and 35 nM | 105 | 55 | 77 | 23 | 6.31 | 2.2 | 137 | 103 | 412 |  | 1540 |  |
| CN1CCCCC1CCN1c2ccccc2Sc2ccc([S+](C)[O-])cc21 (single isomer, unassigned; 3) [listing 1 of 2 here] | 161 nM and 256 nM | 349 | 112 | 837 | 95 | 25.1 |  |  | 1960 | 704 |  |  | 304 |
| CN1CCCCC1CCN1c2ccccc2Sc2ccc([S+](C)[O-])cc21 (single isomer, unassigned; 3) [listing 2 of 2 here] |  |  |  |  |  |  |  |  |  |  | 28 |  |  |
